Biological target: T1, Farnesoid X receptor (FXR) (Homo sapiens, UniProt Q96RI1)
T1 construct: gene NR1H4; FXR-LBD-Glutathione S-transferase fusion protein
T1 sequence (Q96RI1 262-486 limits assumed): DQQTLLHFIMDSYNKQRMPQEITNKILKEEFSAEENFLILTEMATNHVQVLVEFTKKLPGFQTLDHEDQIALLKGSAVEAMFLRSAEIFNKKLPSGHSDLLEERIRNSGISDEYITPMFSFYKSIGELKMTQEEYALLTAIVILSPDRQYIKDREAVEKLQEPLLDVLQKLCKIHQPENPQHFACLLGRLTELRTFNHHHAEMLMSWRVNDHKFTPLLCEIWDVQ
Experiment: LanthaScreen TR-FRET FXR coactivator recruitment assay (partial agonist, […] of GW4064); also luciferase reporter assay
Type: binding

EC50: 0.63 ± 0.26 µM
SMILES: CC(C)(C)c1ccc(-n2c(C3CC3)nc3c(NC(=O)c4ccc(C(=O)O)cc4)cccc32)cc1 [FLG390]

— PMC11722014, “FXR Activation Accelerates Early Phase of Osteoblast Differentiation Through COX-2-PGE2-EP4 Axis in BMP-2-Induced Mouse Mesenchymal Stem Cells” (Molecules, 2024)
